From ChEMBL document CHEMBL4002641, “Indolyl-naphthyl-maleimides as potent and selective inhibitors of protein kinase C-α/β” (Bioorg Med Chem Lett, 2017)

Key:
[1] = target: Protein kinase C eta type (Homo sapiens, UniProt P24723); assay: Inhibition of PKCeta (unknown origin) after 60 mins in presence of [gamma33P]ATP by scintillation proximity assay
[2] = target: T1, Protein kinase C alpha type (Homo sapiens, UniProt P17252); assay: Inhibition of PKCalpha (unknown origin) after 60 mins in presence of [gamma33P]ATP by scintillation proximity assay
[3] = target: T2, Protein kinase C beta type (Homo sapiens, UniProt P05771); assay: Inhibition of PKCbeta1 (unknown origin) after 60 mins in presence of [gamma33P]ATP by scintillation proximity assay
T2 sequence (P05771 whole entry): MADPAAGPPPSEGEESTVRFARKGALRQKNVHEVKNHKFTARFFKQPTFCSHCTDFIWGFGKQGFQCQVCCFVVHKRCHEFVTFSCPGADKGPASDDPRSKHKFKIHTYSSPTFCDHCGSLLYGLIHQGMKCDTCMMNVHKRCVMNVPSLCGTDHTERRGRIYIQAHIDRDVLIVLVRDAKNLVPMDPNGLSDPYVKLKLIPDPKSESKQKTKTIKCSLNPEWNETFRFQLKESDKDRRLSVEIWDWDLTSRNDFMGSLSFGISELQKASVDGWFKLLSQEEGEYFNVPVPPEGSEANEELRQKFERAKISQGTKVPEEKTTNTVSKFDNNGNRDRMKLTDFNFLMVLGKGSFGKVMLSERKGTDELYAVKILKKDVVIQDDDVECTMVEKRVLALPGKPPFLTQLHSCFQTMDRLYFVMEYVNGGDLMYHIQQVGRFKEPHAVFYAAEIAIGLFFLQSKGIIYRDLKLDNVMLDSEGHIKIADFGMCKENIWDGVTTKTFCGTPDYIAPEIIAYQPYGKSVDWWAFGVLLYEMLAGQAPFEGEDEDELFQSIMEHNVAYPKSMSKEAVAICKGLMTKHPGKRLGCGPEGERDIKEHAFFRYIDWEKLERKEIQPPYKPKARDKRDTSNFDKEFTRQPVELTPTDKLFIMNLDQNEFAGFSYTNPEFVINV

[4] = target: Protein kinase C delta type (Homo sapiens, UniProt Q05655); assay: Inhibition of PKCdelta (unknown origin) after 60 mins in presence of [gamma33P]ATP by scintillation proximity assay
Chain of Protein kinase C delta type (Q05655 whole entry): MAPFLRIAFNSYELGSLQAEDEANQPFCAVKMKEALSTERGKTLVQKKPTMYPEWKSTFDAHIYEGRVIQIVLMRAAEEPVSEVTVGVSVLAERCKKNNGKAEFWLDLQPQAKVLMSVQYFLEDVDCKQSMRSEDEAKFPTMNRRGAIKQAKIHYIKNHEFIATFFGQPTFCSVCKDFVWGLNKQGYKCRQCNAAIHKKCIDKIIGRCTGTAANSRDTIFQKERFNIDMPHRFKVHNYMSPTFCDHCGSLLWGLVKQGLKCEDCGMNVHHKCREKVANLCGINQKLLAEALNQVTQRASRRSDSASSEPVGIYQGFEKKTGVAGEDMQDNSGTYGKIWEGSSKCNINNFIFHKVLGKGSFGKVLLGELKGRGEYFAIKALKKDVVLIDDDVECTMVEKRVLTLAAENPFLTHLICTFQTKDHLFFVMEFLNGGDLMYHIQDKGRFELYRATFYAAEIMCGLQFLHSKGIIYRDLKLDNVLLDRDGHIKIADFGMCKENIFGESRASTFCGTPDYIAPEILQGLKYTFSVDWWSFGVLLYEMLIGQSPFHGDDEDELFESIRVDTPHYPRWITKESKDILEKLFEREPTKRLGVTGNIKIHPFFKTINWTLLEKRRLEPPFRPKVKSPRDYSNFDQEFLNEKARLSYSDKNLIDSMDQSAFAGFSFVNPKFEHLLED

[5] = target: T3, Protein kinase C epsilon type (Homo sapiens, UniProt Q02156); assay: Inhibition of PKCepsilon (unknown origin) after 60 mins in presence of [gamma33P]ATP by scintillation proximity assay
T3 sequence (Q02156 whole entry): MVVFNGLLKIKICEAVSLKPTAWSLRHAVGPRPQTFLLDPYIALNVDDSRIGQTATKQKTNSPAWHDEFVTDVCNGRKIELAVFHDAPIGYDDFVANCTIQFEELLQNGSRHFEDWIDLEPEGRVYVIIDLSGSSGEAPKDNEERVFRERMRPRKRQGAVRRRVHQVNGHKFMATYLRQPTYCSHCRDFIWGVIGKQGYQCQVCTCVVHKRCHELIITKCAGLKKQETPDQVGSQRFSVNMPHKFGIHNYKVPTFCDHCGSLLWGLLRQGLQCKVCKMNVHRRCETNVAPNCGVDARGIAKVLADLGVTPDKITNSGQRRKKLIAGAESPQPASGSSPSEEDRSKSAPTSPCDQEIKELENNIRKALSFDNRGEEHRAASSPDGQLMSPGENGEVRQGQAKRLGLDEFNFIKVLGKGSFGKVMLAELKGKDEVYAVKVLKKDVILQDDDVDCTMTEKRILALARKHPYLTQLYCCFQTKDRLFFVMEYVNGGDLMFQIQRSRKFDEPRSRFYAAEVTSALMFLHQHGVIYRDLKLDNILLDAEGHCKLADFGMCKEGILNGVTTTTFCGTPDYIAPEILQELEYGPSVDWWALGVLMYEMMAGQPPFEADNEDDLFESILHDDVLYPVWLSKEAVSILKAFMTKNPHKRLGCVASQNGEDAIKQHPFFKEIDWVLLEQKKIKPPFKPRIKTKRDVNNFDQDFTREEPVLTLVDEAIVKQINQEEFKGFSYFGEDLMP

[6] = target: T4, Protein kinase C theta type (Homo sapiens, UniProt Q04759); assay: Inhibition of PKCtheta (unknown origin) after 60 mins in presence of [gamma33P]ATP by scintillation proximity assay
T4 sequence (Q04759 whole entry): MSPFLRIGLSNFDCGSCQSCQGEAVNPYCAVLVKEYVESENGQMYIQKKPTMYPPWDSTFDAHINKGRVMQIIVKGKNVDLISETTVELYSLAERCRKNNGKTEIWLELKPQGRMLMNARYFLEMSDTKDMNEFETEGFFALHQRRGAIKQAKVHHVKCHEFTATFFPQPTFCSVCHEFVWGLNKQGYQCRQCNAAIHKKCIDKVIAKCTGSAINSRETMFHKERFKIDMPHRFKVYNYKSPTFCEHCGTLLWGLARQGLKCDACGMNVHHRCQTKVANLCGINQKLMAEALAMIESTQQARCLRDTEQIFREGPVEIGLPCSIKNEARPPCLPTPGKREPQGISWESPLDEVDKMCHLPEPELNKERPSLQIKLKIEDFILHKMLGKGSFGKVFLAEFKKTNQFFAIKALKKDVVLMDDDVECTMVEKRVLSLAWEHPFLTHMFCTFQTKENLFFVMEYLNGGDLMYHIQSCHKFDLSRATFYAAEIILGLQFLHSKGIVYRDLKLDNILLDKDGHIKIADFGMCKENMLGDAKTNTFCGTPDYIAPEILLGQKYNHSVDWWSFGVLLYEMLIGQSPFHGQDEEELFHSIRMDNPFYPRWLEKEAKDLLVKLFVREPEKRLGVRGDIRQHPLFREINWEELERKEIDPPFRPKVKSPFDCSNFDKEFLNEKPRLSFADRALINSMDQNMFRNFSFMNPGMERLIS

[7] = target: T4, Protein kinase C theta type; assay: Inhibition of PKCtheta in human Jurkat T cells assessed as reduction in anti-CD3/CD28 antibody-induced T-cell activation by measuring decrease in IL-2 secretion after 5 hrs by luciferase reporter gene assay; assay type: cell-based
PBMC = assay: Inhibition of human PBMC proliferation assessed as decrease in [3H]-TdR uptake after 6 days by mixed lymphocyte reaction assay; assay type: functional, cell-based
[8] = Aqueous solubility of the compound; assay type: physicochemical; conditions: buffer
[9] = target: T1, Protein kinase C alpha type; assay: Reversible competitive inhibition of PKCalpha (unknown origin)
[10] = target: T2, Protein kinase C beta type; assay: Reversible competitive inhibition of PKCbeta1 (unknown origin)
[11] = target: T5, Cyclin-dependent kinase 2 (Homo sapiens, UniProt P24941); assay: Inhibition of CDK2 (unknown origin) at 1 uM
[12] = target: T5, Cyclin-dependent kinase 2; assay: Inhibition of CDK2 (unknown origin)

Chain of Protein kinase C eta type (P24723 whole entry): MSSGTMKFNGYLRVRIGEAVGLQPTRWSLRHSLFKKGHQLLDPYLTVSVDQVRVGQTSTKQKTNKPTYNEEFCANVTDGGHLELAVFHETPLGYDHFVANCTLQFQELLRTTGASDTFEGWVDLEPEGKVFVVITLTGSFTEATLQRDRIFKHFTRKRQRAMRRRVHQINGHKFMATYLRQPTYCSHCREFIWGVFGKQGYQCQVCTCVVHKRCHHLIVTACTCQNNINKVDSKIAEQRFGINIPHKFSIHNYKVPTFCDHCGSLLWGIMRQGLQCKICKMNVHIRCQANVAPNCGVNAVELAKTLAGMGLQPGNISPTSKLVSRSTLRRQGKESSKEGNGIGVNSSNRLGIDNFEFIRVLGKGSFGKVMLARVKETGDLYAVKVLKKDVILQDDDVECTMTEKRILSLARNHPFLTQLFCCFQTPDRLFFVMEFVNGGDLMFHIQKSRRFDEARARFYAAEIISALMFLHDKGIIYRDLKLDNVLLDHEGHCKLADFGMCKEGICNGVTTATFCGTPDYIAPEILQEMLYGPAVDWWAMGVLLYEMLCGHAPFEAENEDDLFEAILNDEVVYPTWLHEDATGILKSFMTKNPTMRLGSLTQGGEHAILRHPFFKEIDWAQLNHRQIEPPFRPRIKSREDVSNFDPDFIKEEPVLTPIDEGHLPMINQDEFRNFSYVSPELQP

| SMILES | IC50 [1] [nM] | IC50 [2] [nM] | IC50 [3] [nM] | IC50 [4] [nM] | IC50 [5] [nM] | IC50 [6] [nM] | IC50 [7] [nM] | IC50 (PBMC) [nM] | solubility [8] | Ki [9] [nM] | Ki [10] [nM] | inhibition [11] [%] | IC50 [12] [nM] |
| --- | --- | --- | --- | --- | --- | --- | --- | --- | --- | --- | --- | --- | --- |
| CC(C)NCc1ccc2ccc(Cl)c(C3=C(c4cn(C)c5ccccc45)C(=O)NC3=O)c2c1 | 182 | 2.7 | 2.9 | 79 | 73 | 101 | – | – | – | – | – | – | – |
| CN(C)Cc1ccc2c(C3=C(c4cn(C)c5ccccc45)C(=O)NC3=O)c(Cl)ccc2c1 | 30 | 3.7 | 6.8 | 17 | 18 | – | 185 | 54 | Insoluble | – | – | – | – |
| Cc1ccc2ccc(CN)cc2c1C1=C(c2cn(C)c3ccccc23)C(=O)NC1=O | > 316 | 95 | 42 | > 316 | > 316 | > 316 | – | – | – | – | – | – | – |
| CNCc1ccc2ccc(Cl)c(C3=C(c4cn(C)c5ccccc45)C(=O)NC3=O)c2c1 | 34 | 0.5 | 1.4 | 15 | 30 | 21 | – | – | – | – | – | – | – |
| NCc1ccc2cccc(C3=C(c4c[nH]c5ccccc45)C(=O)NC3=O)c2c1 | > 316 | 36 | 75 | > 316 | > 316 | > 316 | – | – | – | – | – | – | – |
| CN(C)Cc1ccc2ccc(Cl)c(C3=C(c4cn(C)c5ccccc45)C(=O)NC3=O)c2c1 | 565 | 4 | 3.7 | 214 | 402 | 263 | 402 | 277 | Insoluble | 1 | 0.5 | > 50 | 220 |
| Cn1cc(C2=C(c3c(Cl)ccc4ccc(CN)cc34)C(=O)NC2=O)c2ccccc21 | > 316 | 4.7 | 3.3 | 254 | > 316 | > 316 | – | – | – | – | – | – | – |
| CN(C)Cc1ccc2c(C3=C(c4c[nH]c5ccccc45)C(=O)NC3=O)c(Cl)ccc2c1 | – | 1.8 | 3.4 | – | 4.3 | 12 | 156 | 59 | Insoluble | – | – | – | – |
| Cn1cc(C2=C(c3cccc4ccc(CN)cc34)C(=O)NC2=O)c2ccccc21 | > 316 | 73 | 93 | > 316 | > 316 | > 316 | – | – | – | – | – | – | – |
| CC(=O)N(C)Cc1ccc2ccc(Cl)c(C3=C(c4cn(C)c5ccccc45)C(=O)NC3=O)c2c1 | > 316 | 63 | 41 | 284 | > 316 | > 316 | – | – | – | – | – | – | – |
| CN1CCN(c2nc(C3=C(c4c[nH]c5ccccc45)C(=O)NC3=O)c3ccccc3n2)CC1 [SOTRASTAURIN] | – | – | – | – | – | – | 81 | 28 | – | – | – | – | – |
| Cn1cc(C2=C(c3cccc4cc(CN)ccc34)C(=O)NC2=O)c2ccccc21 | 308 | 136 | 133 | 92 | 225 | 276 | – | – | – | – | – | – | – |
| Cn1cc(C2=C(c3c(Cl)ccc4ccc(CN5CCC5)cc34)C(=O)NC2=O)c2ccccc21 | 316 | 3.4 | 2 | 230 | 223 | 254 | – | – | – | – | – | – | – |
| CN(Cc1ccc2ccc(Cl)c(C3=C(c4cn(C)c5ccccc45)C(=O)NC3=O)c2c1)C1CC1 | > 316 | 63 | 60 | > 316 | > 316 | > 316 | > 3550 | – | Insoluble | – | – | – | – |
| Cc1ccc2ccc(CN)cc2c1C1=C(c2c[nH]c3ccccc23)C(=O)NC1=O | > 316 | 49 | 43 | > 316 | > 316 | > 316 | – | – | – | – | – | – | – |
| COCCNCc1ccc2ccc(Cl)c(C3=C(c4cn(C)c5ccccc45)C(=O)NC3=O)c2c1 | 206 | 2.8 | 3.1 | 39 | 110 | 21 | – | – | – | – | – | – | – |
| CN(C)Cc1ccc2ccc(Cl)c(C3=C(c4c[nH]c5ccccc45)C(=O)NC3=O)c2c1 | 316 | 0.5 | 0.7 | 303 | 182 | 216 | 708 | 406 | Insoluble | – | – | – | – |
